Measured values published in the supplement of paper PMC4862054.

Key:
Details in all cases: incubation time: 72 h
[1] = system: BT-474; test: normalised response (% of control), CellTiter-Glo; higher = more viable cells (100 = DMSO, 0 = benzethonium chloride kill control)
In short: (§1)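 The table gives the normalised signal for a single concentration in each entry. Breast cancer cell lines were seeded (20 µl suspension) into 384-well plates holding compound at 5 concentrations in 10-fold steps over a compound-specific 10,000-fold range and incubated 72 h, then read for CellTox Green fluorescence (485/520 nm) and CellTiter-Glo luminescence. Normalisation on each plate used 0.1 % DMSO (100) and a positive kill control (0).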

[2] = system: BT-549; test: as above
In short: as §1

[3] = system: CAL-120; test: as above
In short: as §1

[4] = system: CAL-148; test: as above
In short: as §1

[5] = system: CAL-51; test: as above
In short: as §1

[6] = system: CAL-85-1; test: as above
In short: as §1

[7] = system: DU-4475; test: as above
In short: as §1

[8] = system: HCC1143; test: as above
In short: as §1

[9] = system: HCC1599; test: as above
In short: as §1

[10] = system: HCC1937; test: as above
In short: as §1

[11] = system: HDQ-P1; test: as above
In short: as §1

[12] = system: Hs578T; test: as above
In short: as §1

[13] = system: MCF-10A; test: as above
In short: as §1

[14] = system: MDA-MB-231; test: as above
In short: as §1

[15] = system: MDA-MB-436; test: as above
In short: as §1

[16] = system: MDA-MB-453; test: as above
In short: as §1

[17] = system: MDA-MB-468; test: as above
In short: as §1

[18] = system: MFM-223; test: as above
In short: as §1

[19] = system: SK-BR-3; test: as above
In short: as §1

[20] = system: BT-474; test: normalised viability (% of control), CellTiter-Blue; higher = more viable cells (100 = DMSO, 0 = benzethonium chloride kill control)
Description: (§2)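 DSRT, CellTiter-Blue viability, 72 h incubation. Signal is normalised to DMSO and benzethonium chloride controls. Value is the normalised response at dose 1.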

[21] = system: BT-549; test: as above
Description: as §2

[22] = system: CAL-120; test: as above
Description: as §2

[23] = system: CAL-148; test: as above
Description: as §2

[24] = system: CAL-51; test: as above
Description: as §2

[25] = system: CAL-85-1; test: as above
Description: as §2

[26] = system: DU-4475; test: as above
Description: as §2

[27] = system: HCC1143; test: as above
Description: as §2

[28] = system: HCC1599; test: as above
Description: as §2

[29] = system: HCC1937; test: as above
Description: as §2

[30] = system: HDQ-P1; test: as above
Description: as §2

[31] = system: Hs578T; test: as above
Description: as §2

[32] = system: MDA-MB-231; test: as above
Description: as §2

[33] = system: MDA-MB-436; test: as above
Description: as §2

[34] = system: MDA-MB-453; test: as above
Description: as §2

[35] = system: MDA-MB-468; test: as above
Description: as §2

[36] = system: MFM-223; test: as above
Description: as §2

[37] = system: SK-BR-3; test: as above
Description: as §2

Structure (SMILES)	normalised response [1] [%]	normalised response [2] [%]	normalised response [3] [%]	normalised response [4] [%]	normalised response [5] [%]	normalised response [6] [%]	normalised response [7] [%]	normalised response [8] [%]	normalised response [9] [%]	normalised response [10] [%]	normalised response [11] [%]	normalised response [12] [%]	normalised response [13] [%]	normalised response [14] [%]	normalised response [15] [%]	normalised response [16] [%]	normalised response [17] [%]	normalised response [18] [%]	normalised response [19] [%]	normalised viability [20] [%]	normalised viability [21] [%]	normalised viability [22] [%]	normalised viability [23] [%]	normalised viability [24] [%]	normalised viability [25] [%]	normalised viability [26] [%]	normalised viability [27] [%]	normalised viability [28] [%]	normalised viability [29] [%]	normalised viability [30] [%]	normalised viability [31] [%]	normalised viability [32] [%]	normalised viability [33] [%]	normalised viability [34] [%]	normalised viability [35] [%]	normalised viability [36] [%]	normalised viability [37] [%]
Cc1ccc(F)c(NC(=O)Nc2ccc(-c3cccc4[nH]nc(N)c34)cc2)c1 [Linifanib] (0.1 nM)	107	97	101	112	105	98.8	105	100	115	102	102	100	105	102	107	122	102	105	112	116	109	95.4	117	101	94.7	110	116	110	92.4	115	99.3	100	149	112	130	103	107
S=c1[nH]cnc2nc[nH]c12 [Mercaptopurine] (1 nM)	90.2	108	99.5	91.3	122	96.9	92.4	97.8	98.9	99.8	108	103	95.3	98.2	97.2	109	90.8	97.3	95.7	105	107	96.6	116	104	84	101	97.6	97.3	93.6	106	130	103	80.8	105	98.7	95.9	104
Clc1ccc(C(c2ccccc2Cl)C(Cl)Cl)cc1 (stereo not drawn) [Mitotane] (1 nM)	90.7	108	95.2	99.4	109	95.5	95.3	101	103	94.5	97.8	102	94.9	93.6	85.8	96	96.4	97.7	95.4	89.9	103	99.2	117	111	92.4	104	98	112	83.8	112	118	99	90.9	107	108	95.1	101
COc1cccc2cc(-c3nc([C@H]4CC[C@H](C(=O)O)CC4)n4ncnc(N)c34)[nH]c12 [OSI-027] (1 nM)	95.8	95.5	102	98.7	88	101	91.7	92.8	101	97.1	96.3	97.9	91.4	93.9	86.8	95.4	90.1	90.5	91.1	85.3	93.9	96.8	96.1	90.3	100	87.8	105	110	88.9	76.9	118	83.6	93.8	88.8	90.7	95.9	86.9
